Consider 9 compounds from ChEMBL document CHEMBL1144003, “Trypanocidal activity of a new pterocarpan and other secondary metabolites of plants from Northeastern Brazil flora” (Bioorg Med Chem, 2008).

≈ marks a conversion by molar mass, not a printed value. Bounds are passed on as bounds.

One test concerns Trypanosoma cruzi. Put plainly: Trypanocidal activity against Trypanosoma cruzi Berenice after 72 hrs. The test is classed as functional, organism-based.
A further test has as its system PBL. Kind of test: Cytotoxicity against human PBL cells after 72 hrs by alamar blue assay. The test is classed as cell-based. On the technique in general: Alamar Blue is a resazurin reagent that responds to reducing activity.
The next test concerns B16. Put plainly: Antiproliferative activity against mouse B16 cells. The class given is functional, cell-based.
In the next test the test system is HCT-8. Kind of test: Antiproliferative activity against human HCT8 cells. The test is classed as functional, cell-based.
The next test concerns CCRF-CEM. Kind of test: Antiproliferative activity against human CEM cells. The test is classed as functional, cell-based.
The next test relates to HL-60. Kind of test: Antiproliferative activity against human HL60 cells. The test is classed as functional, cell-based.

In the case of `CC(C)=CCC/C(C)=C/Cc1cc2c(cc1O)OC[C@H]1c3cc4c(cc3O[C@@H]21)OCO4`, the IC50 (as a rule, the concentration that inhibits the measured activity by half) with Trypanosoma cruzi is 12.2 µg/mL (≈ 29 µM); in the test on PBL, above 50 µg/mL.

On to `COc1cccc2c1C(=O)c1c(O)c3c(c(O)c1C2=O)C[C@@](O)(C(=O)CO)C[C@@H]3O[C@H]1C[C@H](N)[C@H](O)[C@H](C)O1` [DOXORUBICIN], for which, in the test with PBL, the IC50 worked out at 0.97 µg/mL (≈ 1.78 µM).

For `CCOC1O[C@@](C)([C@H]2CC(C)=C(C)C(=O)O2)[C@H]2CC[C@H]3[C@@H]4C[C@H]5O[C@]56[C@@H](O)C=CC(=O)[C@]6(C)[C@H]4CC[C@]123` (stereo partly drawn) [WITHAPHYSALIN O], in the test on Trypanosoma cruzi, the IC50 was determined as 0.3 µg/mL (≈ 0.585 µM).

Take `COC1=C(OC)C(=O)C2=C(C[C@H]3[C@](C)(C2)C[C@@H]2C[C@@]23C)C1=O` (relative stereo): the IC50 in the test with Trypanosoma cruzi stood at 1.3 µg/mL (≈ 4.3 µM); in the test on PBL, 28.4 µg/mL (≈ 93.8 µM).

As to `CC1=C(C)C(=O)O[C@@H]([C@]2(C)OC(=O)[C@]34CC[C@H]5[C@@H](C[C@H]6O[C@]67[C@@H](O)CCC(=O)[C@]57C)[C@@H]3CC[C@H]24)C1` [WITHAPHYSALIN N], half-maximal inhibition in the test on Trypanosoma cruzi (IC50) required 6.4 µg/mL (≈ 13.2 µM).

Take `CC(C)=CCc1c(O)ccc2c1OC[C@H]1c3cc4c(cc3O[C@@H]21)OCO4`: the IC50 in the test on Trypanosoma cruzi is 13.3 µg/mL (≈ 37.7 µM); in the test with PBL, above 50 µg/mL.

`CC1=C(C)C(=O)O[C@@H]([C@]2(C)OC(=O)[C@]34CC[C@H]5[C@@H](C[C@H]6O[C@]67[C@@H](O)C=CC(=O)[C@]57C)[C@@H]3CC[C@H]24)C1` [WITHAPHYSALIN M] gave an IC50 in the test on Trypanosoma cruzi of 0.7 µg/mL (≈ 1.45 µM).

Turning to `C[C@@]12C[C@H]3OC(=O)[C@@H]1CO[C@]14O[C@]5([C@H]2C1=O)[C@@](O)(CC[C@H]1[C@H]4C[C@H]2O[C@]24CC=CC(=O)[C@]14C)C(=O)O[C@@]35C` [PHYSALIN F], the IC50 in the test on Trypanosoma cruzi was 9.4 µg/mL (≈ 17.9 µM); in the test with PBL it was 4.23 µg/mL (≈ 8.03 µM); in the test with B16, 0.5 µg/mL (≈ 0.95 µM); in the test with HCT-8, 0.5 µg/mL (≈ 0.95 µM); in the test with CCRF-CEM it was 0.5 µg/mL (≈ 0.95 µM); in the test on HL-60, 0.5 µg/mL (≈ 0.95 µM).

`CC(C)=CCC/C(C)=C/Cc1c(O)ccc(C(=O)/C=C/c2ccc(O)c(O)c2)c1O`: the figures for the IC50 with Trypanosoma cruzi and in the test with PBL were 10.6 µg/mL (≈ 25.9 µM) and 23 µg/mL (≈ 56.4 µM), respectively.
